From ChEMBL document CHEMBL5335823, “Synthesis, biological evaluation, and stability studies of raloxifene mono- and bis-sulfamates as dual-targeting agents” (Bioorg Med Chem, 2024)

Assays:
[1] = tested on: T47D; assay: Antiproliferative activity against human T47D cells assessed as inhibition of cell growth incubated for 5 days by crystal violet staining based analysis; type: functional; conditions: 120 h, time 5 day
[2] = molecular target: T1, Steryl-sulfatase (Homo sapiens, UniProt P08842); assay: Inhibition of STS in human JEG-3 cell lysates assessed as inhibition of estrone E1 formation using [3H]estrone sulfate as substrate incubated for 1 hr in presence of E1S by scintillation spectrometry; type: subcellular
T1 sequence (P08842 whole entry): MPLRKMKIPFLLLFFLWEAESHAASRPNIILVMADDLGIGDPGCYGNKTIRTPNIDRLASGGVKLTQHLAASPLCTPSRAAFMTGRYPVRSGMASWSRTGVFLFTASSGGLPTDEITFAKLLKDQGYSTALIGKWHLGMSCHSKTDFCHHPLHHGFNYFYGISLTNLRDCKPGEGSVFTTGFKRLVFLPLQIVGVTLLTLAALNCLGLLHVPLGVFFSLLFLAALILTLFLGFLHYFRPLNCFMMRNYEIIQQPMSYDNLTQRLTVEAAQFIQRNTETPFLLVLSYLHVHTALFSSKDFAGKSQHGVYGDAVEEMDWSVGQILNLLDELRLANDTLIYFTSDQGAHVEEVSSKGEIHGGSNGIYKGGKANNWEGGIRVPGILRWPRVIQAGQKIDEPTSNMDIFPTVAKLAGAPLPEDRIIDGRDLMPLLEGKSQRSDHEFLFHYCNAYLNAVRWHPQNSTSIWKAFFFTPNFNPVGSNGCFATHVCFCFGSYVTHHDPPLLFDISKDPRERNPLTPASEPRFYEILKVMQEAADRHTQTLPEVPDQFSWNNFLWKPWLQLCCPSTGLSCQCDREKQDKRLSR

[3] = tested on: T47D; assay: Antiproliferative activity against human T47D cells assessed as inhibition of cell growth at 10 uM incubated for 5 days by crystal violet staining based analysis; type: functional; conditions: 120 h, time 5 day
[4] = molecular target: T1, Steryl-sulfatase; assay: Inhibition of STS in human JEG-3 cells assessed as inhibition of estrone E1 formation using [3H]estrone sulfate as substrate incubated for 20 hrs in presence of E1S by scintillation spectrometry; type: cell-based
[5] = Stability of the compound in wet DMSO-d6 assessed as parent compound remaining at 6.2 umol measured at room temperature after 6 days by 1HNMR spectroscopy; type: physicochemical; conditions: at 6.2 µmol, time 6 day, read-out: Stability
[6] = Stability of the compound in wet DMSO-d6 assessed as parent compound remaining at 6.2 umol measured at room temperature after 45 days by 1HNMR spectroscopy; type: physicochemical; conditions: at 6.2 µmol, time 45 day, read-out: Stability
[7] = molecular target: T2, Estrogen receptor (Homo sapiens) (UniProt P03372); assay: Antagonist activity at ER-alpha (unknown origin) at 10 microM by ER-alpha coactivator assay
T2 sequence (whole entry): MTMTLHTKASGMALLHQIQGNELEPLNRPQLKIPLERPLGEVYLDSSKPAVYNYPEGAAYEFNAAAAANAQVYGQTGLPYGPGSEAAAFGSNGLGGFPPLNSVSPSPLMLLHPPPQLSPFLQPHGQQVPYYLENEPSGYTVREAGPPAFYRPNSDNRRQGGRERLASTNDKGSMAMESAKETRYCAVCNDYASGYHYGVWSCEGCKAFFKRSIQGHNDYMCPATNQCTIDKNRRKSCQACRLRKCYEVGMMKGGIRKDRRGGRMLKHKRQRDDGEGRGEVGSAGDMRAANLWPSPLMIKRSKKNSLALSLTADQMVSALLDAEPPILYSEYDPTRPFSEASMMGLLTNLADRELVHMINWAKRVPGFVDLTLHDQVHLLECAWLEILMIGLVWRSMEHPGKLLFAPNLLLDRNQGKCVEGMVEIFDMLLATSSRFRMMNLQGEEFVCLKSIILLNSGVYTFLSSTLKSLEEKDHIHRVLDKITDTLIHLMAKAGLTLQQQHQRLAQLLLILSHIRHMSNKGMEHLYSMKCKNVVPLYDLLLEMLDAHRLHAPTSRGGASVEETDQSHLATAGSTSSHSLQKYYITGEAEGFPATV

[8] = Stability of the compound in wet DMSO-d6 assessed as parent compound remaining at 8 umol measured at room temperature after 45 days by 1HNMR spectroscopy; type: physicochemical; conditions: at 8 µmol, time 45 day, read-out: Stability
[9] = tested on: CCRF-CEM; assay: Antiproliferative activity against human CCRF-CEM cells assessed as inhibition of cell growth measured after 72 hrs by CellTiter-Glo assay; type: functional
[10] = tested on: HOP-62; assay: Antiproliferative activity against human HOP-62 cells assessed as inhibition of cell growth measured after 72 hrs by CellTiter-Glo assay; type: functional
[11] = tested on: OVCAR-4; assay: Antiproliferative activity against human OVCAR-4 cells assessed as inhibition of cell growth measured after 72 hrs by CellTiter-Glo assay; type: functional
[12] = tested on: HCT-116; assay: Antiproliferative activity against human HCT-116 cells assessed as inhibition of cell growth measured after 72 hrs by CellTiter-Glo assay; type: functional
[13] = tested on: MDA-MB-231; assay: Antiproliferative activity against human MDA-MB-231 cells assessed as inhibition of cell growth measured after 72 hrs by CellTiter-Glo assay; type: functional
[14] = Stability of the compound in wet DMSO-d6 assessed as parent compound remaining at 7.9 umol measured at room temperature after 6 days by 1HNMR spectroscopy; type: physicochemical; conditions: at 7.9 µmol, time 6 day, read-out: Stability
[15] = tested on: SF-539; assay: Antiproliferative activity against human SF-539 cells assessed as inhibition of cell growth measured after 72 hrs by CellTiter-Glo assay; type: functional
[16] = tested on: DU-145; assay: Antiproliferative activity against human DU-145 cells assessed as inhibition of cell growth measured after 72 hrs by CellTiter-Glo assay; type: functional
[17] = tested on: SN12C; assay: Antiproliferative activity against human SN12C cells assessed as inhibition of cell growth measured after 72 hrs by CellTiter-Glo assay; type: functional
[18] = tested on: UACC-62; assay: Antiproliferative activity against human UACC-62 cells assessed as inhibition of cell growth measured after 72 hrs by CellTiter-Glo assay; type: functional
[19] = Stability of the compound in wet DMSO-d6 assessed as parent compound remaining at 7.9 umol measured at room temperature after 30 days by 1HNMR spectroscopy; type: physicochemical; conditions: at 7.9 µmol, time 30 day, read-out: Stability

Structure (SMILES): O=C(c1ccc(OCCN2CCCCC2)cc1)c1c(-c2ccc(O)cc2)sc2cc(O)ccc12 [RALOXIFENE]
- GI50 [1]: 6.89 µM
- IC50 ([2]; jeg-3): Not Active
- inhibition at 10 µM [3]: 78%
- IC50 ([4]; jeg-3): Not Active

Structure (SMILES): NS(=O)(=O)Oc1ccc2c(C(=O)c3ccc(OCCN4CCCCC4)cc3)c(-c3ccc(O)cc3)sc2c1
- remaining at 144 h, 6.2 umol [5]: 70%
- IC50 ([2]; read-out: IC50): 2.08 µM
- remaining at 1080 h, 6.2 umol [6]: 18%
- IC50 ([4]; read-out: IC50): 0.332 µM

Structure (SMILES): Cl.O=C(c1ccc(OCCN2CCCCC2)cc1)c1c(-c2ccc(O)cc2)sc2cc(O)ccc12 [RALOXIFENE HYDROCHLORIDE]
- IC50 ([2]; jeg-3): Not Active

Structure (SMILES): NS(=O)(=O)Oc1ccc(-c2sc3cc(O)ccc3c2C(=O)c2ccc(OCCN3CCCCC3)cc2)cc1
- inhibition [7]: 27%
- IC50 ([2]; read-out: IC50): 3.4 µM
- inhibition at 10 µM [3]: 12%
- remaining at 1080 h, 8 umol [8]: 12%
- IC50 ([4]; read-out: IC50): 0.607 µM

Structure (SMILES): NS(=O)(=O)Oc1ccc(-c2sc3cc(OS(N)(=O)=O)ccc3c2C(=O)c2ccc(OCCN3CCCCC3)cc2)cc1
- GI50 [9]: 9.02 µM
- GI50 [1]: 7.12 µM
- GI50 [10]: 14.8 µM
- GI50 [11]: 10.6 µM
- IC50 ([2]; read-out: IC50): 0.0966 µM
- GI50 [12]: 14.6 µM
- GI50 [13]: 1.34 µM
- remaining at 144 h, 7.9 umol [14]: 27%
- GI50 [15]: 13.1 µM
- GI50 [16]: 16 µM
- GI50 [17]: 1.61 µM
- GI50 [18]: 1.47 µM
- IC50 ([4]; read-out: IC50): 0.0122 µM
- remaining at 720 h, 7.9 umol [19]: 0%
